# Reference: patent publication US6221865A, “Inhibitors of protein isoprenyl transferases” (priority 1998, dated 2001)
# Counter-ions that a name gives are not always drawn.
# Molecular target: T1, protein farnesyltransferase (Rattus norvegicus, UniProt Q02293+Q04631)
# T1 construct: The enzyme is purified according to Reiss, Y., et al., Cell, 62: 81-88 (1990), utilizing steps one through three; from tissue; host or cells: rat brain
# Test: Inhibition of farnesyltransferase (scintillation proximity assay, rat brain enzyme, biotin-K Ras B fragment substrate)
# Assay type: biochemical
# Conditions: 1 × 10^-5 M (Table 1)
# Outline: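 Enzyme from rat brain, partly purified (steps one to three), assayed by SPA kit using 0.1 mM final biotin-K Ras B peptide as prenyl acceptor rather than biotin-lamin. Activity given as percent inhibition.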
# T1 sequence (Q02293 whole entry, one chain of several): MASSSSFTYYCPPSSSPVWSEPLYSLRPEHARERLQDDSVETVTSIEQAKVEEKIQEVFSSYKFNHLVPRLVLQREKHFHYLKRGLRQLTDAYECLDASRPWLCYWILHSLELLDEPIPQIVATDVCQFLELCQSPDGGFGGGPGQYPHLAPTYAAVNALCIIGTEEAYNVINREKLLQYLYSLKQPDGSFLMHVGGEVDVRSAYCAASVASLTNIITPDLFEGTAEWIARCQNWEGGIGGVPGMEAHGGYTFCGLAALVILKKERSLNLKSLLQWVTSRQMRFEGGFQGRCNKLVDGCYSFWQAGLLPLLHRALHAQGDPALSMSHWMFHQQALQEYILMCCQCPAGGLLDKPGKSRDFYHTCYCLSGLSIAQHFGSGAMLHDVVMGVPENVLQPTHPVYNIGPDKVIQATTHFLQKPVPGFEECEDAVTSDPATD
row,SMILES,% inhibition of farnesyltransferase at 1 × 10^-5 M [%]
1,CSCC[C@H](NC(=O)c1ccc(NC(=O)CCN)cc1-c1ccccc1)C(=O)O [Example 750],44
2,CSCC[C@H](NC(=O)c1ccc(CNc2cccc(Oc3ccccc3)c2)cc1-c1ccccc1)C(=O)O [Example 686],48
3,CSCC[C@H](NC(=O)c1ccc(CNc2ccc(Oc3ccccc3)cc2)cc1-c1ccccc1)C(=O)O [Example 701],64
4,CSCC[C@H](NC(=O)c1ccc(CNc2ccc(I)cc2)cc1-c1ccccc1)C(=O)O [Example 688],71
5,CSCC[C@H](NC(=O)c1ccc(CNc2cc(C(C)(C)C)[nH]n2)cc1-c1ccccc1)C(=O)O [Example 381],79
6,CSCC[C@H](NC(=O)c1ccc(CNc2nccs2)cc1-c1ccccc1)C(=O)O [Example 374],61

# Same assay, conditions: 1 × 10^-6 M (Table 2)
row,SMILES,% inhibition of farnesyltransferase at 1 × 10^-6 M [%]
1,CSCC[C@H](NC(=O)c1ccc(OCCOc2ccccc2)cc1-c1ccccc1C)C(=O)O [Example 561],91
2,CSCC[C@H](NC(=O)c1ccc(OCCOC2CCCCC2)cc1-c1ccccc1C)C(=O)[O-].[Li+] [Example 565],94
3,CSCC[C@H](NC(=O)c1ccc(CNCCN(C(C)C)C(C)C)cc1-c1ccccc1)C(=O)O [Example 636],72
4,CSCC[C@H](NC(=O)c1ccc(OCCCC2CCCCC2)cc1-c1ccccc1C)C(=O)O [Example 564],98
5,CSCC[C@H](NC(=O)c1ccc(CN(Cc2ccccc2)Cc2ccco2)cc1-c1ccccc1C)C(=O)O [Example 504],90
6,CSCC[C@H](NC(=O)c1cc(Cc2ccccc2)c(COCCCc2ccccc2)cc1-c1ccccc1C)C(=O)O [Example 925],87
7,CSCC[C@H](NC(=O)c1ccc(NC(=O)Cc2nccs2)cc1-c1ccccc1)C(=O)O [Example 163],18
8,COc1ccc(CCOCc2ccc(C(=O)N[C@@H](CCSC)C(=O)O)c(-c3ccccc3C)c2)cc1 [Example 937],95
9,CSCC[C@H](NC(=O)c1ccc(CN(Cc2ccccc2)Cc2ccccc2)cc1-c1ccccc1)C(=O)O [Example 834],55
10,CSCC[C@H](NC(=O)c1ccc(COC2(Cc3ccccc3)CCN(C(=O)OC(C)(C)C)CC2)cc1-c1ccccc1C)C(=O)[O-].[Li+] [Example 809],78
11,CSCC[C@H](NC(=O)c1ccc(COCc2ccsc2)cc1-c1ccccc1C)C(=O)[O-].[Li+] [Example 274],94
12,CSCC[C@H](NC(=O)c1ccc(COCC(CC2CCCCC2)CC2CCCCC2)cc1-c1ccccc1C)C(=O)O [Example 889],95
13,CSCC[C@H](NC(=O)c1ccc(COCc2ccc3ccccc3c2)cc1-c1ccccc1C)C(=O)[O-].[Li+] [Example 583],98
14,CSCC[C@H](NC(=O)c1ccc(CN(C)C(C)(C)Cc2ccccc2)cc1-c1ccccc1C)C(=O)O [Example 982],64
15,COc1ccc(CC(=O)Nc2ccc(C(=O)N[C@@H](CCSC)C(=O)O)c(-c3ccccc3C)c2)cc1 [Example 542],67
16,CCOC(=O)N1CCC(NCc2ccc(C(=O)N[C@@H](CCSC)C(=O)[O-])c(-c3ccccc3C)c2)CC1.[Li+] [Example 806],72
17,CSCC[C@H](NC(=O)c1ccc(CNCCN2CCCC2)cc1-c1ccccc1)C(=O)O [Example 641],34
18,CSCC[C@H](NC(=O)c1ccc(CN(CCC#N)Cc2ccccc2)cc1-c1ccccc1)C(=O)O [Example 649],86
19,CSCC[C@H](NC(=O)c1ccc(COC2CCN(Cc3ccccc3)CC2)cc1-c1ccccc1C)C(=O)O [Example 807],90
20,CSCC[C@H](NC(=O)c1ccc(CS[C@H](CO)Cc2ccccc2)cc1-c1ccccc1)C(=O)O [Example 545],88

# Same assay, conditions: 1 × 10^-7 M (Table 3)
row,SMILES,% inhibition of farnesyltransferase at 1 × 10^-7 M [%]
1,CSCC[C@H](NC(=O)c1ccc(COC(Cc2ccccc2)Cc2ccccc2)cc1-c1ccccc1C)C(=O)[O-].[Li+] [Example 522],93
2,CSCC[C@H](NC(=O)c1ccc(COCc2ccc(-c3ccc(C(C)=O)cc3)o2)cc1-c1ccccc1C)C(=O)[O-].[Li+] [Example 449],91
3,CCSC[C@H](CC(C)C)N(C)Cc1ccc(C(=O)N[C@@H](CCSC)C(=O)O)c(-c2ccccc2C)c1 [Example 906],88
4,CSCC[C@H](NC(=O)c1ccc(CSCC2CCCCC2)cc1-c1ccccc1C)C(=O)[O-].[Li+] [Example 559],96
5,CSCC[C@H](NC(=O)c1ccc(CSc2ccc3ccccc3c2)cc1-c1ccccc1C)C(=O)O [Example 551],93
6,CSCC[C@H](NC(=O)c1ccc(CN[C@H](CO)C2CCCCC2)cc1-c1ccccc1C)C(=O)O [Example 520],97

# Same assay, conditions: 1 × 10^-8 M (Table 4)
row,SMILES,% inhibition of farnesyltransferase at 1 × 10^-8 M [%]
1,CCCCC(OCc1ccc(C(=O)N[C@@H](CCSC)C(=O)O)c(-c2ccccc2C)c1)c1cncs1 (stereo partly drawn) [Example 985],89
2,CSCC[C@H](NC(=O)c1ccc(COCCCC23CC4CC(CC(C4)C2)C3)cc1-c1ccccc1C)C(=O)[O-].[Li+] [Example 599],86
3,CCSC[C@H](CC1CCCCC1)N(C)Cc1ccc(C(=O)N[C@@H](CCSC)C(=O)O)c(-c2ccccc2C)c1 [Example 944],88

# Same assay, conditions: Table 6, ** = 0.01 μM (footnote); title prints 0.01 mM
row,SMILES,% inhibition at 0.01 μM (**) [%]
1,COCCN(CCC1CCCCC1)Cc1ccc(C(=O)N[C@@H](CCSC)C(=O)O)c(-c2ccccc2C)c1 [Example 1104],89

# Same assay, conditions: read-out: % inhibition at 0.01 μM (**); Table 6, ** = 0.01 μM (footnote); title prints 0.01 mM
row,SMILES,inhibition at 0.01 µM [%]
1,"CSCC[C@H](NC(=O)c1ccc(CC(CO)CCC2CCCCC2)cc1-c1ccccc1C)C(=O)O (stereo partly drawn) [Example 1299, N-[4-(2-(2-Cyclohexylethyl)-1-hydroxyprop-3-yl)-2-(2-methylphenyl)benzoyl]methionine Lithium Salt]",96

# Same assay, conditions: read-out: % inhibition at 0.1 μM (*); Table 6, * = 0.1 μM (footnote); title prints 0.1 mM
row,SMILES,inhibition at 0.1 µM [%]
1,"CCCCN(Cc1cc(F)cc(F)c1)OCc1ccc(C(=O)N[C@@H](CCSC)C(=O)O)c(-c2ccccc2C)c1 [Example 1176, N-[4-N-Butyl-N-(3,5-difluorobenzyl)aminooxymethyl-2-(2-methylphenyl)benzoyl]methionine lithium salt]",97
2,"CSCC[C@H](NC(=O)c1ccc(/C=C/c2ccc(Oc3ccc(Cl)cc3)cc2)cc1-c1ccccc1C)C(=O)O [Example 1016, N-[4-(2-(4-(4-chlorophenoxy)phenyl)ethen-1-yl)-2-(2-methylphenyl)benzoyl]methionine lithium salt]",92
3,"CSCC[C@H](NC(=O)c1ccc(CC(CCC2CCCCC2)C(=O)OC(C)(C)C)cc1-c1ccccc1C)C(=O)O (stereo partly drawn) [Example 1301, N-[4-(2-(2-cyclohexylethyl)t-butylpropion-3-yl)-2-(2-methylphenyl)benzoyl]methionine Lithium Salt]",97
4,"CSCC[C@H](NC(=O)c1ccc(Cc2nnn(Cc3ccccc3)n2)cc1-c1ccccc1C)C(=O)O [Example 1101, N-[4-(2-benzyltetrazol-5-ylmethyl)-2-(2-methylphenyl)benzoyl]methionine]",86

# Same assay, conditions: read-out: % inhibition of farnesyltransferase at 1 × 10^-6 M; 1 × 10^-6 M (Table 2)
row,SMILES,inhibition at 1 µM [%]
1,"CSCC[C@H](NC(=O)c1ccc(CN2CCNCC2)cc1-c1ccccc1)C(=O)O [Example 290, (4-piperazinylmethyl-2-phenylbenzoyl)methionine]",74
2,"CSCC[C@H](NC(=O)c1ccc(/C=C/CCc2ccccc2)cc1-c1ccccc1C)C(=O)O [Example 472, N-[4-(4-phenylbut-1-enyl)-2-(2-methylphenyl)benzoyl]methionine]",97
3,"CSCC[C@H](NC(=O)c1ccc(/C=C/c2cncnc2)cc1-c1ccccc1C)C(=O)O [Example 494, N-[4-(2-pyrimidin-5-ylethen-1-yl)-2-(2-methylphenyl)benzoyl]methionine lithium salt]",96
4,"CSCC[C@H](NC(=O)c1ccc(/C=C/CC(O)c2ccc3ccccc3c2)cc1-c1ccccc1C)C(=O)O (stereo partly drawn) [Example 474, N-[4-(4-naphth-2-ylbut-4-ol-1-enyl)-2-(2-methylphenyl)benzoyl]methionine]",92
5,CSCC[C@H](NC(=O)c1ccc(CN(C(C)C)C(C)(C)CC2CCCCC2)cc1-c1ccccc1C)C(=O)O [Example 318],98
6,CSCC[C@H](NC(=O)c1ccc(CN(C)C(CC2CCCCC2)C(=O)N2CCCCC2)cc1-c1ccccc1C)C(=O)O (stereo partly drawn) [Example 301],98

# Same assay, conditions: read-out: % inhibition of farnesyltransferase at 1 × 10^-8 M; 1 × 10^-8 M (Table 4)
row,SMILES,inhibition at 0.01 µM [%]
1,"CSCC[C@H](NC(=O)c1ccc(CON=C(Cc2ccccc2)Cc2ccccc2)cc1-c1ccccc1C)C(=O)O [Example 888, N-[4-N-(1,3-Diphenylpropan-2-yl)iminooxymethyl-2-(2-methylphenyl)benzoyl]-methionine lithium salt]",86
